What follows are compounds tested on IFN-β secretion in THP1 cells (assay: IFN-β secretion in THP1 cell culture (5 h)). Details: not given.
Format: cell-based, human
Description: The ability of compounds to stimulate the secretion of interferon-beta from THP1 cells was measured using a human IFN-β AlphaLISA kit (Perkin Elmer, Cat. No. AL265F). The basic protocol is as follows:
The cell viability and count was ascertained using a Beckman Coulter V-Cell XR cell counter. The cells suspension was centrifuged at 200×g for 5 min at RT. […] Subsequent liquid transfers were performed using either a Matrix electronic multichannel pipette or an Agilent Bravo Automated Liquid Handling Platform.
The assay was started by dispensing 40 μL of the previously prepared cell suspension into the wells of the plate containing compounds. After 5 h incubation at 37° C., 5% CO2 in a humidified atmosphere, the plate of cells and compounds was centrifuged at 200×g for 5 min at RT. […] To these supernatant-containing wells was added 10 μL of 5× Anti-Analyte Acceptor beads (50 μg/mL of AlphaLISA HiBlock Buffer) and incubated for 30 min at RT while shaking on an orbital plate shaker. To each well was added 10 μL of 5× Biotinylated Antibody Anti-analyte (5 nM in AlphaLISA HiBlock Buffer) and incubated on an orbital plate shaker for 60 min at RT or overnight at 4° C. To each well was added 25 μL of 2× SA-Donor beads (80 μg/mL in AlphaLISA HiBlock Buffer) and incubated for 30-45 min at RT in the dark while shaking on an orbital plate shaker. The plate was then read on a Perkin Elmer Envision (λex=680 nm, λem=[…]). The percent effect of the AlphaLISA signal at each compound concentration was calculated based on 30 uM cGAMP positive controls and 0.3% DMSO negative controls. The plot of percent effect versus the log of compound concentration was fit with a 4-parameter concentration response equation to calculate EC50 values.
Compounds of the disclosure were evaluated for IFN-β secretion in THP1 cell culture as described above.

Point of comparison: `Nc1nc2c(ncn2[C@@H]2O[C@@H]3COP(=O)(O)O[C@H]4C[C@H](n5cnc6c(N)ncnc65)O[C@@H]4COP(=O)(O)O[C@@H]2C3)c(=O)[nH]1` [Example 27, 2-amino-9-[(5S,7R,8R,12aR,14R,15aS)-14-(6-amino-9H-purin-9-yl)-2,10-dihydroxy-2,10-dioxidooctahydro-12H-5,8-methanofuro[3,2-l][1,3,6,9,11,2,10]pentaoxadiphosphacyclotetradecin-7-yl]-1,9-dihydro-6H-purin-6-one], “% Effect at 30 μM relative to 2′3′-cGAMP” value 164%. Against it:
- Nc1nc2c(ncn2[C@@H]2O[C@@H]3COP(=O)(O)O[C@H]4[C@H](O)[C@H](n5cnc6c(N)ncnc65)O[C@@H]4COP(=O)(O)O[C@@H]2[C@@H]3O)c(=O)[nH]1 [Example 48, 2-amino-9-[(5R,7R,8R,12aR,14R,15S,15aS,16R)-14-(6-amino-9H-purin-9-yl)-2,10,15,16-tetrahydroxy-2,10-dioxidooctahydro-12H-5,8-methanofuro[3,2-l][1,3,6,9,11,2,10]pentaoxadiphosphacyclotetradecin-7-yl]-1,9-dihydro-6H-purin-6-one] — lower, 104%
- Nc1nc2c(ncn2[C@@H]2O[C@@H]3COP(=O)(O)OC4C[C@H](n5cnc6c(N)ncnc65)O[C@@H]4COP(=O)(O)OC2C3F)c(=O)[nH]1 (stereo in doubt) [Example 22, 2-amino-9-[(5R,7R,8S,12aR,14R,15aS,16R)-14-(6-amino-9H-purin-9-yl)-16-fluoro-2,10-dihydroxy-2,10-dioxidooctahydro-12H-5,8-methanofuro[3,2-l][1,3,6,9,11,2,10]pentaoxadiphosphacyclotetradecin-7-yl]-1,9-dihydro-6H-purin-6-one] — lower, 109%
- Nc1nc2c(ncn2[C@@H]2O[C@@H]3COP(=O)(S)O[C@H]4[C@H](F)[C@H](n5cnc6c(N)ncnc65)O[C@@H]4COP(=O)(S)O[C@@H]2[C@H]3F)c(=O)[nH]1 (single isomer, unassigned) [Example 145] — lower, 141%

Same assay, conditions: IFN-β secretion in THP1 cell culture, 5 h; compound at 30 μM; percent activation relative to 2′3′-cGAMP

Point of comparison: `Nc1nc2c(ncn2[C@@H]2O[C@@H]3COP(=O)(O)O[C@H]4[C@H](F)[C@H](n5cnc6c(N)ncnc65)O[C@@H]4COP(O)(=S)O[C@@H]2[C@@H]3F)c(=O)[nH]1` (single isomer, unassigned) [Example 274], “% Effect at 30 μM relative to 2′3′-cGAMP” value 124%. Against it:
- Nc1nc2c(nnn2[C@@H]2O[C@@H]3COP(=O)(S)O[C@H]4[C@H](F)[C@H](n5cnc6c(=O)[nH]cnc65)O[C@@H]4COP(=O)(S)O[C@@H]2[C@@H]3F)c(=O)[nH]1 (single isomer, unassigned) [Example 342] — lower, 23%
- Nc1nc2c(ncn2[C@@H]2O[C@@H]3COP(=O)(S)OC4[C@@H](COP(=O)(S)OC2C3O)O[C@@H](n2cnc3c(N)ncnc32)[C@H]4F)c(=O)[nH]1 (single isomer, unassigned) [Example 91] — lower, 106%
- Nc1nc2c(nnn2[C@@H]2O[C@@H]3COP(=O)(S)O[C@H]4[C@H](F)[C@H](n5cnc6c(=O)[nH]cnc65)O[C@@H]4COP(=O)(S)O[C@@H]2[C@@H]3F)c(=O)[nH]1 (single isomer, unassigned) [Example 343] — higher, 255%
- Nc1nc2c(ncn2[C@@H]2O[C@@H]3COP(=O)(S)OC4C5OC[C@]4(COP(=O)(S)OC2C3O)O[C@H]5n2cnc3c(N)ncnc32)c(=O)[nH]1 (single isomer, unassigned) [Example 94] — higher, 138%
- Nc1nc2c(ncn2[C@@H]2O[C@@H]3COP(=O)(S)OC4C(O)[C@H](n5cnc6c(N)ncnc65)O[C@@H]4COP(=O)(S)OC2C3)c(=O)[nH]1 (single isomer, unassigned) [Example 88] — lower, 54%
- Nc1nc2c(ncn2[C@@H]2O[C@@H]3COP(=O)(S)OC4[C@@H](COP(=O)(S)O[C@H]2C3O)O[C@@H](n2cnc3c(N)ncnc32)[C@H]4F)c(=O)[nH]1 (single isomer, unassigned) [Example 82] — lower, 111%
- Nc1nc2c(nnn2[C@@H]2O[C@@H]3COP(=O)(S)O[C@H]4[C@H](F)[C@H](n5nnc6c(=O)[nH]cnc65)O[C@@H]4COP(=O)(S)O[C@@H]2[C@@H]3F)c(=O)[nH]1 (single isomer, unassigned) [Example 344] — higher, 337%
- Nc1nc2c(nnn2[C@@H]2O[C@@H]3COP(=O)(S)O[C@H]4[C@H](F)[C@H](n5nnc6c(=O)[nH]cnc65)O[C@@H]4COP(=O)(S)O[C@@H]2C3)c(=O)[nH]1 (single isomer, unassigned) [Example 340] — higher, 306%
- Nc1nc2c(ncn2[C@@H]2O[C@@H]3COP(=O)(S)O[C@H]4[C@H](F)[C@H](n5cnc6c(N)ncnc65)O[C@@H]4COP(=O)(S)O[C@@H]2[C@H]3F)c(=O)[nH]1 (single isomer, unassigned) [Example 146] — lower, 59%
- Nc1nc2c(ncn2[C@@H]2O[C@@H]3COP(O)(=S)O[C@H]4[C@H](F)[C@H](n5cnc6c(N)ncnc65)O[C@@H]4COP(O)(=S)O[C@@H]2[C@@H]3F)c(=O)[nH]1 (single isomer, unassigned) [Example 246] — higher, 217%
- Nc1nc2c(nnn2[C@@H]2O[C@@H]3COP(=O)(S)O[C@H]4[C@H](F)[C@H](n5nnc6c(=O)[nH]cnc65)O[C@@H]4COP(=O)(S)O[C@@H]2C3)c(=O)[nH]1 (single isomer, unassigned) [Example 341] — lower, 7%
- Nc1nc2c(ncn2[C@@H]2O[C@@H]3COP(=O)(S)OC4C(O)[C@H](n5cnc6c(N)ncnc65)O[C@@H]4COP(=O)(S)OC2C3)c(=O)[nH]1 (single isomer, unassigned) [Example 87] — lower, 99%
- Nc1nc2c(ncn2[C@@H]2O[C@@H]3COP(=O)(O)O[C@H]4[C@H](F)[C@H](n5nnc6c(=O)[nH]cnc65)O[C@@H]4COP(=O)(S)O[C@@H]2[C@@H]3F)c(=O)[nH]1 (single isomer, unassigned) [Example 347] — higher, 225%
- Nc1nc2c(ncn2[C@@H]2O[C@@H]3COP(=O)(S)O[C@H]4[C@H](F)[C@H](n5cnc6c(N)ncnc65)O[C@@H]4COP(=O)(O)O[C@@H]2[C@@H]3F)c(=O)[nH]1 (stereo partly drawn) [Example 143, 2-amino-9-[(5R,7R,8S,12aR,14R,15S,15aR,16R)-14-(6-amino-9H-purin-9-yl)-15,16-difluoro-2,10-dihydroxy-10-oxido-2-sulfidooctahydro-12H-5,8-methanofuro[3,2-l][1,3,6,9,11,2,10]pentaoxadiphosphacyclotetra-decin-7-yl]-1,9-dihydro-6H-purin-6-one] — higher, 157%
- Nc1nc2c(ncn2[C@@H]2O[C@@H]3COP(=O)(S)OC4C5OC[C@]4(COP(=O)(S)OC2C3O)O[C@H]5n2cnc3c(N)ncnc32)c(=O)[nH]1 (single isomer, unassigned) [Example 95] — lower, 118%
- Nc1nc2c(nnn2[C@@H]2O[C@@H]3COP(=O)(S)O[C@H]4[C@H](F)[C@H](n5cnc6c(=O)[nH]cnc65)O[C@@H]4COP(=O)(S)O[C@@H]2[C@H]3F)c(=O)[nH]1 (stereo partly drawn) [Example 348, 5-amino-3-[(5R,7R,8S,12aR,14R,15S,15aR,16S)-15,16-difluoro-2,10-dioxido-14-(6-oxo-1,6-dihydro-9H-purin-9-yl)-2,10-disulfanyloctahydro-12H-5,8-methanofuro[3,2-l][1,3,6,9,11,2,10]pentaoxadiphosphacyclotetradecin-7-yl]-3,6-dihydro-7H-[1,2,3]triazolo[4,5-d]pyrimidin-7-one] — lower, 8%
